Assay results: patent US20100016208A1, “PHOTOACTIVATABLE ANTIMICROBIAL AGENTS” (priority 2005, published 2010)

Columns and labels:
[1] = molecular target: β-lactamase from Enterobacter cloacae (Enterobacter cloacae, UniProt P05364); assay: Enzyme-mediated cleavage of the prodrug (fluorescence emission, photosensitizer release); type: biochemical
Method: Enzyme-mediated cleavage of the prodrug The prodrug obtained was further studied for release of photosensitizer in presence of β-lactamase from Enterobacter cloacae. For the fluorescence emission study of the prodrug, the solvent employed was water, and the excitation wavelength 635 nm in the presence of beta-lactamase enzyme (from Enterobacter cloacae). Time-dependent fluorescence emission was also measured for photosensitizer release from the prodrug in the presence of enzyme. […] Thus, the prodrug was synthesized and characterized.

[2] = Fluorescence emission spectra of prodrug vs. free photosensitizer (TBO); type: physicochemical; settings: ethanol, 635 nm excitation

Sequence of β-lactamase from Enterobacter cloacae (P05364 21-381): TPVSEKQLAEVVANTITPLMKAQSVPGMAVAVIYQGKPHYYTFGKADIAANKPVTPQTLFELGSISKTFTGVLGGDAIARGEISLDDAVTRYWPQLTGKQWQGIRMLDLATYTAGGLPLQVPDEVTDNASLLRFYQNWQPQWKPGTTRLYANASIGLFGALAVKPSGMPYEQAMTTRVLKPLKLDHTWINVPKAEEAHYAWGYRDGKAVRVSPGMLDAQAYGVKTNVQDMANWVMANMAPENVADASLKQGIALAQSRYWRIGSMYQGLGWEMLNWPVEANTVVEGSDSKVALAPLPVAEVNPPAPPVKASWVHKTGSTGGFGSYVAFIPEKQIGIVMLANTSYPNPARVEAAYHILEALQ

Cephalosporanic Acid-Toluidine BlueO Prodrug
enzyme specificity of photosensitizer release ([1]; beta-lactamase enzyme (from Enterobacter cloacae)): lactamase-specific activity | increase in excited stated properties (fluorescence emission) on incubation with enzyme ([1]; water, 635 nm excitation, within minutes of incubation of prodrug with enzyme): ~5 fold | reduction in fluorescence emission maxima (quenching of the photosensitizer upon conjugation with the cephalosporin moiety) [2]: ~8 fold
